Experimental data: patent US20200024278A1, “COMPOSITION COMPRISING ANTIBIOTIC COMPOUND AND AN HETEROCYCLIC COMPOUND AND THEIR USE IN PREVENTING OR TREATING BACTERIAL INFECTIONS” (MUTABILIS, priority 2016, published 2020)

Legend:
Assay in all cases: MIC, broth microdilution (CLSI), substance alone or ATB combined with compound at 4 or 8 μg/mL
[1] = system: ECO 190317; assay type: cell-based, E. coli; details: ECO 190317
Experimental: (§1) Compounds of the present invention were assessed against genotyped bacterial strains alone or in combination with an antibacterial. In the assays, MICs of said compounds or combination of antibiotics with fixed concentrations of said compounds (4 or 8 μg/mL) were determined by the broth microdilution method according to the Clinical Laboratory Standards Institute (CLSI-M7-A7). Briefly, compounds alone according to the invention were prepared in DMSO and spotted (2 μL each) on sterile polystyrene plates (Corning, 3788). Combinations of compounds and antibiotics dilutions were prepared in DMSO and spotted (1 μL each) on sterile polystyrene plates (Corning, 3788). Log phase bacterial suspensions were adjusted to a final density of 5·10^5 CFU/mL in cation-adjusted Mueller-Hinton broth (ca-MHB; Becton-Dickinson and Company) and added to each well (98 μL). Assays including Fosfomycin were supplemented with 25 μg/ml of Glucose-6-phosphate. Microplates were incubated for 16-20 h at 35° C. in ambient air. The MIC of the compounds was defined as the lowest concentration of said compounds that prevented bacterial growth as read by visual inspection. The MIC of ATB at each compound concentration was defined as the lowest concentration of ATB that prevented bacterial growth as read by visual inspection.

[2] = system: ECO UFR39; assay type: cell-based, E. coli; details: ECO UFR39; with Example 13 at 8 μg/ml
Experimental: as §1

[3] = system: ECL P99; assay type: cell-based, E. cloacae; details: ECL P99
Experimental: as §1

[4] = system: PAE 105250; assay type: cell-based, P. aeruginosa; details: PAE 105250
Experimental: as §1

[5] = system: PAE UFR48; assay type: cell-based, P. aeruginosa; details: PAE UFR48
Experimental: as §1

[6] = system: PAE UFR90; assay type: cell-based, P. aeruginosa; details: PAE UFR90
Experimental: as §1

[7] = system: SAU 29213; assay type: cell-based, S. aureus; details: SAU 29213
Experimental: as §1

[8] = system: SPN 49619; assay type: cell-based, S. pneumoniae; details: SPN 49619
Experimental: as §1

SMILES: CO/N=C(\C(=O)N[C@@H]1C(=O)N2C(C(=O)O)=C(CSc3nc(=O)c(O)nn3C)CS[C@H]12)c1csc(N)n1 [CTR]
- MIC ATB combined with Example 1 @8 μg/ml ([1]; with Example 1 @8 μg/ml): <0.031 µg/mL
- MIC ATB combined with Example 1 @8 μg/ml ([1]; with Example 1 at 8 μg/ml): <0.031 µg/mL
- MIC ATB combined with Example 13 @8 μg/ml ([1]; with Example 13 at 8 μg/ml): <0.031 µg/mL
- MIC ATB combined with Example 13 @8 μg/ml [2]: <0.031 µg/mL
- MIC ATB combined with Example 1 @8 μg/ml ([3]; with Example 1 @8 μg/ml): <0.031 µg/mL
- MIC ATB combined with Example 1 @8 μg/ml ([3]; with Example 1 at 8 μg/ml): <0.031 µg/mL
- MIC ATB combined with Example 7 @8 μgml ([3]; with Example 7 at 8 μg/ml): 2 µg/mL
- MIC ATB combined with Example 13 @8 μg/ml ([3]; with Example 13 at 8 μg/ml): 1 µg/mL
- MIC ATB combined with Example 1 @8 μg/ml ([4]; with Example 1 @8 μg/ml): <0.031 µg/mL
- MIC ATB combined with Example 1 @8 μg/ml ([4]; with Example 1 at 8 μg/ml): <0.031 µg/mL
- MIC ATB combined with Example 11 @8 μg/ml ([4]; with Example 11 at 8 μg/ml): 32 µg/mL
- MIC ATB combined with Example 12 @8 μg/ml ([4]; with Example 12 at 8 μg/ml): >32 µg/mL
- MIC ATB combined with Example 14 @8 μg/ml ([4]; with Example 14 at 8 μg/ml): >32 µg/mL
- MIC ATB combined with Example 15 @4 μgml ([4]; with Example 15 at 4 μg/ml): 32 µg/mL
- MIC ATB combined with Example 16 @4 μg/ml ([4]; with Example 16 at 4 μg/ml): >32 µg/mL
- MIC ATB combined with Example 1 @8 μg/ml ([5]; with Example 1 @8 μg/ml): <0.031 µg/mL
- MIC ATB combined with Example 1 @8 μg/ml ([5]; with Example 1 at 8 μg/ml): <0.031 µg/mL
- MIC ATB combined with Example 7 @8 μgml ([5]; with Example 7 at 8 μg/ml): >32 µg/mL
- MIC ATB combined with Example 11 @8 μg/ml ([5]; with Example 11 at 8 μg/ml): >32 µg/mL
- MIC ATB combined with Example 12 @8 μg/ml ([5]; with Example 12 at 8 μg/ml): >32 µg/mL
- MIC ATB combined with Example 15 @4 μgml ([5]; with Example 15 at 4 μg/ml): >32 µg/mL
- MIC ATB combined with Example 16 @4 μg/ml ([5]; with Example 16 at 4 μg/ml): >32 µg/mL
- MIC ATB combined with Example 1 @8 μg/ml ([6]; with Example 1 @8 μg/ml): <0.031 µg/mL
- MIC ATB combined with Example 1 @8 μg/ml ([6]; with Example 1 at 8 μg/ml): <0.031 µg/mL
- MIC ATB combined with Example 7 @8 μgml ([6]; with Example 7 at 8 μg/ml): >32 µg/mL
- MIC ATB combined with Example 11 @8 μg/ml ([6]; with Example 11 at 8 μg/ml): 32 µg/mL
- MIC ATB combined with Example 12 @8 μg/ml ([6]; with Example 12 at 8 μg/ml): >32 µg/mL
- MIC ATB combined with Example 14 @8 μg/ml ([6]; with Example 14 at 8 μg/ml): >32 µg/mL
- MIC ATB combined with Example 16 @4 μg/ml ([6]; with Example 16 at 4 μg/ml): >32 µg/mL
- MIC ATB alone ([7]; antibiotic alone): 8 µg/mL
- MIC ATB combined with Example 1 @8 μg/ml ([7]; with Example 1 @8 μg/ml): 4 µg/mL
- MIC ATB combined with Example 1 @8 μg/ml ([7]; with Example 1 at 8 μg/ml): 4 µg/mL
- MIC ATB combined with Example 7 @8 μgml ([7]; with Example 7 at 8 μg/ml): 2 µg/mL
- MIC ATB combined with Example 11 @8 μg/ml ([7]; with Example 11 at 8 μg/ml): <=0.031 μg/mL
- MIC ATB combined with Example 13 @8 μg/ml ([7]; with Example 13 at 8 μg/ml): 4 µg/mL
- MIC ATB combined with Example 7 @8 μgml ([8]; with Example 7 at 8 μg/ml): 0.063 µg/mL
- MIC ATB combined with Example 9 @4 μg/ml ([8]; with Example 9 @4 μg/ml): <=0.031 μg/mL
- MIC ATB combined with Example 9 @4 μg/ml ([8]; with Example 9 at 4 μg/ml): <=0.031 μg/mL
- MIC ATB combined with Example 11 @8 μg/ml ([8]; with Example 11 at 8 μg/ml): <=0.031 μg/mL
- MIC ATB combined with Example 13 @8 μg/ml ([8]; with Example 13 at 8 μg/ml): <=0.031 μg/mL
- MIC ATB combined with Example 15 @4 μgml ([8]; with Example 15 at 4 μg/ml): <=0.031 μg/mL
